From article PMC8763382, “2-Sulfonylpyrimidines as Privileged Warheads for the Development of S. aureus Sortase A Inhibitors” (Frontiers in Molecular Biosciences, 2022)
Several values for one entry are separate records, joined by “and”; a condition that tells them apart may be missing. Identical values can stand only once.

How the values were obtained:
SrtA = test system: SrtA; set-up: method as in Jaudzems et al., 2020; conditions: after 16 h of incubation with 100 µM inhibitor; ref Jaudzems et al., 2020; cited from earlier work
S. aureus SrtA = biological target: T1, S. aureus SrtA (Staphylococcus aureus, UniProt Q2FV99); assay: fluorometric enzyme assay of SrtA transpeptidation (Abz-LPETG-Dap(Dnp)-OH substrate); assay type: biochemical
T1 construct: His tag (inferred from IMAC on a HisTrap column); made in house; host or cells: E. coli BL21 Gold (DE3)
T1 sequence (Q2FV99 60-206): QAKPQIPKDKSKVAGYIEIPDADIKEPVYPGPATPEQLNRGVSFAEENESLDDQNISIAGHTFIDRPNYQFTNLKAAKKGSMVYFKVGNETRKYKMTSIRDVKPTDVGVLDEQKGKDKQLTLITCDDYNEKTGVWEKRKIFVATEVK
Description: To evaluate the inhibition potency of the parent sulfonylpyrimidine 4, this compound was tested by means of a fluorometric enzyme assay with recombinantly expressed S. aureus SrtA ([Schmohl et al., 2017b]) and Abz-LPETG-Dap (Dnp)-OH as substrate. […] To verify the irreversible mode of inhibition, we determined the maximum inactivation rate k inact, the dissociation constant of the reversible enzyme-inhibitor complex KI, and the second-order rate of inhibition k 2nd. For compound 4, a k inact = 0.00065 s^−1 was found, which is very low compared to other covalent SrtA inhibitors ([Chan et al., 2017]; [Barthels et al., 2020]; [Jaudzems et al., 2020]).
Inhibition assays of S. aureus SrtA transpeptidation reactions were performed as described previously ([Barthels et al., 2020]). Briefly, the recombinantly expressed SrtA (final concentration: 1 µM) was incubated in assay buffer (50 mM Tris, 150 mM NaCl, 5 mM CaCl2, pH 7.50) with 25 µM of the FRET-pair substrate Abz-LPETG-Dap (Dnp)-OH (Genscript, Piscataway, New Jersey) and 0.5 mM tetraglycine (Sigma Aldrich, St. Louis, Missouri). Inhibitors were added from DMSO stocks. Reactions were initiated by addition of SrtA and monitored for 30 min at 30°C in an Infinite M200 Pro plate reader with λex 320 nm/λem 430 nm (Tecan, Männedorf, Switzerland). Three technical replicates were carried out for each inhibitor in black flat-bottom 96-well plates (Greiner bio-one, Kremsmünster, Austria). The enzyme kinetics of irreversible SrtA inactivation were analyzed as described previously ([Barthels et al., 2020]).

[1] = set-up: method as in Bauer et al.; conditions: ref Bauer et al.; cited from earlier work
T. brucei rhodesain (Rd) = biological target: T2, T. brucei rhodesain (Rd) (Trypanosoma brucei rhodesiense, UniProt Q95PM0); assay: protease selectivity panel, fluorometric assay rhodesain; assay type: biochemical; conditions: 100 µM inhibitor; n. i. = no inhibition at 100 µM; read-out: Rd inhibition relative to the DMSO control
T2 construct: purchased Calbiochem, Merck Millipore
T2 sequence (Q95PM0 entry or part of it): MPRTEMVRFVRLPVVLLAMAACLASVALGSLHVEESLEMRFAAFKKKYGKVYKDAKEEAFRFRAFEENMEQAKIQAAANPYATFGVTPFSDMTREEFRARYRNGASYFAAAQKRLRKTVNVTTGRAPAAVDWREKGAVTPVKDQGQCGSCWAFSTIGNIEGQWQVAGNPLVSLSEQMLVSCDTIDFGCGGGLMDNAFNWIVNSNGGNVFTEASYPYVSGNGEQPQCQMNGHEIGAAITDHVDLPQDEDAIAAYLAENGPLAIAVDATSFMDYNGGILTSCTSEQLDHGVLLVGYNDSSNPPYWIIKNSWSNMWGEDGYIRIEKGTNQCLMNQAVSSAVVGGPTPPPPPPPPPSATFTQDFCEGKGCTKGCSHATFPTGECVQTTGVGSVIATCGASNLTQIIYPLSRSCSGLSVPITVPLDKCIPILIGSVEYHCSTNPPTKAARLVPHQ
Description: (§1) To investigate how these sulfonylpyrimidines affect the activity of other cysteine and serine proteases, a selectivity panel was constructed from a matrix of 6 diverse sulfonylpyrimidines and 6 different proteases. The compounds were assayed at a final compound concentration of 100 µM for the cysteine proteases human cathepsin B (hCatB), cathepsin L (hCatL), and T. brucei rhodesain (Rd). Furthermore, the serine proteases NS2B-NS3 from Zika virus (ZIKV), the homologous protease from Dengue virus (DENV), and the human protease urokinase plasminogen activator (uPA) were tested for their susceptibility.
(§2) Fluorometric assays of the ZIKV/DENV NS2B/NS3 protease were performed as described previously ([Maus et al., 2021]). The assay was carried out in triplicates at 25°C in assay buffer (50 mM Tris, pH 9.0, 20% glycerol (v/v), and 1 mM CHAPS). 100 µM Boc-Gly-Arg-Arg-AMC (Bachem, Bubendorf, Switzerland) was used as a substrate. Fluorometric assays for cathepsin B, cathepsin L, and rhodesain (Calbiochem, Merck Millipore, Burlington, Massachusetts) were performed as described previously ([Klein et al., 2020a]). Cbz-Phe-Arg-AMC (Bachem, Bubendorf, Switzerland) was used as substrate (100 μM for cathepsin B, 6.5 μM for cathepsin L, and 10 µM for rhodesain). Fluorometric assays for urokinase plasminogen activator were performed as described previously ([Angelini et al., 2012]). 240 µM Cbz-Gly-Arg-Arg-AMC (Bachem, Bubendorf, Switzerland) was used as a substrate.

[2] = cysteine reactivity assay (competitive fluorescence assay with probe 8); assay type: physicochemical
Excerpt: In order to study the kinetics of sulfonylpyrimidines reacting with free cysteine in solution, a strategy for a competitive fluorescence-based assay was adapted from previous works ([Epps and Taylor, 2001]; [Sameshima et al., 2017]). […] The reaction of probe 8 with cysteine liberates 4-methylumbelliferone as a fluorometrically detectable product (Figure 7A), and thus, the fluorescence increase can be described by the second-order rate constant k probe (Equation 1).
Upon the addition of competitive and irreversible cysteine modifiers such as sulfonylpyrimidines, the fluorescence increase of the probe reaction was hyperbolically attenuated (Figure 7B). According to the conceptual deduction described previously ([Epps and Taylor, 2001]; [Sameshima et al., 2017]), the experimental fluorescence curves can be analyzed by nonlinear regression as first-order reaction progress curves (Equation 2). The parameter k obs describes the curvature corresponding to the sum of the competing kinetics (Equation 3). Under the assumptions that 1) the competitive reaction between sulfonylpyrimidines vs. probe with cysteine is started by simultaneous addition, and 2) sulfonylpyrimidines are added at a much higher concentration than cysteine (5 µM) and the probe (5 µM), the k obs values depend substantially on the k chem value. The compound-specific second-order inactivation parameter k chem can be determined by linear regression from the k obs values of the dilution series (Equation 4). d[FL]/dt=kprobe[Cys][probe] (1) FL=[Cys]total⋅kprobe [probe]/kprobe [probe] + kchem [sulfonylpyrimidine](1−e^−kobs⋅t) (2) kobs=kchem [sulfonylpyrimidine]+kprobe [probe] (3) kchem=kobs/[sulfonylpyrimidine] (4)
Kinetic characterization of the reaction between sulfonylpyrimidines and cysteine was performed in degassed phosphate buffer (1×PBS, pH 7.5) or individual cases in bicarbonate buffer (20 mM NaHCO3, 100 mM NaCl, pH 7.5). Three technical replicates were carried out for each sulfonylpyrimidine in black flat-bottom 96-well plates. For this purpose, 50 µL buffered solution (including 5% (v/v) DMSO) of the respective sulfonylpyrimidine derivative (final: 250–3 µM) and the cysteine reactive probe 8 (final: 5 µM) were premixed. Reactions were initiated by the addition of 50 µL cysteine (final: 5 µM), dissolved in the respective buffer, and monitored for 30 min at 30°C in an Infinite M200 Pro plate reader with λex 380 nm/λem 460 nm. To calculate k obs and k chem values, fluorescence curves were fitted using the same non-linear regression as for in vitro inhibition of SrtA ([Barthels et al., 2020]).

[3] = biological target: T3, NS2B-NS3 from Zika virus (ZIKV) (Zika virus, UniProt Q32ZE1); assay: protease selectivity panel, fluorometric assay ZIKV NS2B/NS3 protease; assay type: biochemical; conditions: 100 µM inhibitor; read-out: ZIKV inhibition relative to the DMSO control
T3 construct: The ZIKV NS2B/NS3 protease is a serine protease and contains two non-catalytic cysteine residues
T3 sequence (Q32ZE1 1499-1676): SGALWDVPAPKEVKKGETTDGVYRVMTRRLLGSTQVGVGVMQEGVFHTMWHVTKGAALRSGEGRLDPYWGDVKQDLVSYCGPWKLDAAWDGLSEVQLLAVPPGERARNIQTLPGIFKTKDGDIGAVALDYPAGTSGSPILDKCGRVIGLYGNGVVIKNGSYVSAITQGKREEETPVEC
T3 sequence (Q32ZE1 1421-1460): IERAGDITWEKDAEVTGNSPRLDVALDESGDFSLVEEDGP
Description: as §1, §2

cathepsin L (hCatL) = biological target: T4, cathepsin L (hCatL) (Homo sapiens, UniProt P07711); assay: protease selectivity panel, fluorometric assay cathepsin L; assay type: biochemical; conditions: 100 µM inhibitor; read-out: CatL inhibition relative to the DMSO control
T4 construct: purchased Calbiochem, Merck Millipore
T4 sequence (P07711 114-333): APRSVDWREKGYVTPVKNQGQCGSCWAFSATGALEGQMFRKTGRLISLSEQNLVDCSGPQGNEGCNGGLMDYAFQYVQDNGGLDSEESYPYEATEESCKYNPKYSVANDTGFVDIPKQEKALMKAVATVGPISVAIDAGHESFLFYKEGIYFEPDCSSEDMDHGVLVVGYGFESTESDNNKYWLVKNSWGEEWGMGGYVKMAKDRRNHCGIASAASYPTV
Description: as §1, §2

[4] = biological target: T5, human cathepsin B (hCatB) (Homo sapiens, UniProt P07858); assay: protease selectivity panel, fluorometric assay cathepsin B; assay type: biochemical; conditions: 100 µM inhibitor; read-out: CatB inhibition relative to the DMSO control
T5 construct: purchased Calbiochem, Merck Millipore
Description: as §1, §2

## CS(=O)(=O)c1ncc(Cl)c(C(=O)Nc2ccccc2Cc2ccccc2)n1 [Compound 4]
SrtA
  SrtA inhibition: 97%
S. aureus SrtA; maximum inactivation rate, Tris pH 7.50, n. i. = <20% inhibition at 100 µM
  k inact: 0.00065 s⁻¹ and 0.0006 s⁻¹ and 0.00065 ± 0.00007 s⁻¹
S. aureus SrtA; read-out: KI, dissociation constant of the reversible enzyme-inhibitor complex, Tris pH 7.50, n. i. = <20% inhibition at 100 µM
  KI (inactivation): 47.1 ± 15.7 µM
S. aureus SrtA; second-order rate of inhibition, Tris pH 7.50, n. i. = <20% inhibition at 100 µM
  k 2nd: 14.5 M⁻¹ s⁻¹ and 14.5 ± 2.83 M⁻¹ s⁻¹

## CS(=O)(=O)c1ncc(Cl)c(C(=O)O)n1 [Compound 5c]
[1]
  k chem vs. glutathione: 82 M^−1min-^1
T. brucei rhodesain (Rd)
  inhibition at 100 µM: 20%
[2]; bicarbonate buffered solution pH 7.5
  Cysteine k chem: 0.365 ± 0.0212 M⁻¹ s⁻¹
[2]; phosphate buffer (1×PBS) pH 7.5
  Cysteine k chem: 1.05 M⁻¹ s⁻¹ and 1.05 ± 0.0335 M⁻¹ s⁻¹
[3]
  inhibition at 100 µM: 7.7%
S. aureus SrtA; final inhibitor concentration of 300 µM
  SrtA inhibition (in words): no SrtA inhibition
S. aureus SrtA; read-out: SrtA inhibition relative to the DMSO control
  inhibition at 100 µM: 19.6%
Cathepsin L (hCatL)
  inhibition at 100 µM: 6.6%
[4]
  inhibition at 100 µM: 5.8%
